Assay [1] can be described thus: THP-1 cell cytotoxicity, dose response, cytotoxicity control for Vif-APOBEC3G degradation inhibitor project, THP-1 cells (AID 1117359). The class given is functional. The note with it: Human immunodeficiency virus 1, THP-1.
Assay [2] addresses Cytochrome P450 2D6 (Homo sapiens, UniProt P10635).
Assay [3] addresses T1, Sentrin-specific protease 6 (Homo sapiens, UniProt Q9GZR1).
T1 sequence (Q9GZR1 whole entry): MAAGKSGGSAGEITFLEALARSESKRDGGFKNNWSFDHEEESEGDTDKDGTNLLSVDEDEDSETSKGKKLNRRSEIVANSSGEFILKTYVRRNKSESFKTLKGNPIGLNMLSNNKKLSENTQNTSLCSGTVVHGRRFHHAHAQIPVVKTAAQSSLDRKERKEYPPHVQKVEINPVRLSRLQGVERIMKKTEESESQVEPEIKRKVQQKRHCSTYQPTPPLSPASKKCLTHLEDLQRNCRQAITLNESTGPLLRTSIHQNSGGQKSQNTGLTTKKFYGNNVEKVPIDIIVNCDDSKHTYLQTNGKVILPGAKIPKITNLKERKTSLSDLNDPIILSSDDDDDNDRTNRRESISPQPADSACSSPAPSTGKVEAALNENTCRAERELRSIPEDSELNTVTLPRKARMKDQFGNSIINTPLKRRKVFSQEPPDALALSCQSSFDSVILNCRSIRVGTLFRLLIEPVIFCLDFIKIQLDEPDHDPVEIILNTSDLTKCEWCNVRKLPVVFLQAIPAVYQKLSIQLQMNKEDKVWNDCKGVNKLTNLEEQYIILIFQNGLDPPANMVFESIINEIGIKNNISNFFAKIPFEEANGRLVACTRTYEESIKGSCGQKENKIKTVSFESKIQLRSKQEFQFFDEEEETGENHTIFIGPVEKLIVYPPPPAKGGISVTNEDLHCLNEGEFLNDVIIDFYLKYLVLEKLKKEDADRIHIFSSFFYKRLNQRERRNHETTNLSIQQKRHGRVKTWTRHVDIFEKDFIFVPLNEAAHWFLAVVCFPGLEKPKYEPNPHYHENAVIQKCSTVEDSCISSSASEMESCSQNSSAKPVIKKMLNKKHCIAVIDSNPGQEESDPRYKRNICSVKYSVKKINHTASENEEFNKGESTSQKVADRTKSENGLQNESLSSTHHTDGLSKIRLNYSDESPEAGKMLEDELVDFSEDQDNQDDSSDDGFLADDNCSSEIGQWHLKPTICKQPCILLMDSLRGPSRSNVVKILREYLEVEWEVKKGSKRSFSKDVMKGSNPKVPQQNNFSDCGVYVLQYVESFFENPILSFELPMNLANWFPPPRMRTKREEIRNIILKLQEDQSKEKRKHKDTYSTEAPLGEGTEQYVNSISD
The class given is functional.

Assay [4] concerns the target T2, Sentrin-specific protease 8 (Homo sapiens, UniProt Q96LD8).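 Further: luminescence read-out of SENP8 inhibition, dose-response confirmation following an ultra-high-throughput screen.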
T2 sequence (Q96LD8 whole entry): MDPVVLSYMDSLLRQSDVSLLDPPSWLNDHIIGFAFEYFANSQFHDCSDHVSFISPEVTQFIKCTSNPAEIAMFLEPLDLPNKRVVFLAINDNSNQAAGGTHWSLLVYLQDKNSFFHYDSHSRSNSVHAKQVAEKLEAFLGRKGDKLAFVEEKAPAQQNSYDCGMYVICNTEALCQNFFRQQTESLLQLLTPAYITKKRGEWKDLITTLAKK
Format: functional.

Assay [5] addresses T3, Caspase-3 (Homo sapiens, UniProt P42574).
T3 sequence (P42574 whole entry): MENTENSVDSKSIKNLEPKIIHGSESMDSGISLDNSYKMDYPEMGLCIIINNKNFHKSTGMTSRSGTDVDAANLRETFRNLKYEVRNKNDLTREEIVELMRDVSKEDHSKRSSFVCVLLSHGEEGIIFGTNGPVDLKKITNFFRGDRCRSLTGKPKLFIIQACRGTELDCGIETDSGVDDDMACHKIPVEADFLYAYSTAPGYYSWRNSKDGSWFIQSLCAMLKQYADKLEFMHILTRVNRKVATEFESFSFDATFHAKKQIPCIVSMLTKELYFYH
The class given is functional.

The target in assay [6] is T4, Sentrin-specific protease 7 (Homo sapiens, UniProt Q9BQF6).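 Further: Luminescence-based dose-response confirmation of ultra-high-throughput screening hits, measuring inhibition of SENP7.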
T4 sequence (Q9BQF6 whole entry): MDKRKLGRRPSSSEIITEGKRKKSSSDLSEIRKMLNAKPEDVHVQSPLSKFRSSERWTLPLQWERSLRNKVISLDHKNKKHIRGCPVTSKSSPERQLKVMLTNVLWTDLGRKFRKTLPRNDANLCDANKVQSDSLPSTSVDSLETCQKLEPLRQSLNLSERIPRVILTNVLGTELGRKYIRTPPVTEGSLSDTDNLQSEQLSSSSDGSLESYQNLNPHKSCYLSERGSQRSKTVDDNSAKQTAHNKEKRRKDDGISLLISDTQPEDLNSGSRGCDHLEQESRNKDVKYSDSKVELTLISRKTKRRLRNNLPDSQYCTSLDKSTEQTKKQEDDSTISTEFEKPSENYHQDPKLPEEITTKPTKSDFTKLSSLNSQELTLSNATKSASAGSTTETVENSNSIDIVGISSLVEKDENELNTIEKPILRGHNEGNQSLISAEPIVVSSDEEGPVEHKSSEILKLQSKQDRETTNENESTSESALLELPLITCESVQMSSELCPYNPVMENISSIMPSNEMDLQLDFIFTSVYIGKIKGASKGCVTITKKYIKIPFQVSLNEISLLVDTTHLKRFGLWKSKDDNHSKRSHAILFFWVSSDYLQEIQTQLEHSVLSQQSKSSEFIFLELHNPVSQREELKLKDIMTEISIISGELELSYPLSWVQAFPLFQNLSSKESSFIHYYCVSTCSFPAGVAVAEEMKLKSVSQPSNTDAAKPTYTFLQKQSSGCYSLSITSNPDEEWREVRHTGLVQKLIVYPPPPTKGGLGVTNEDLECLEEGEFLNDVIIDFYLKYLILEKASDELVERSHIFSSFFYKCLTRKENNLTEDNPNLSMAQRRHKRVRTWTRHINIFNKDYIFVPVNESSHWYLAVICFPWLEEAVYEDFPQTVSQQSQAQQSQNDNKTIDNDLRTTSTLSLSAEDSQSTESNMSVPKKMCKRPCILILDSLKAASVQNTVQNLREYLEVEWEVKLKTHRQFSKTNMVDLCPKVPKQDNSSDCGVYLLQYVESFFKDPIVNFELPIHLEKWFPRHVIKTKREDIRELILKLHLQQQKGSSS
Format: functional.

Assay [7] concerns the target T5, Coagulation factor XII (Homo sapiens, UniProt P00748).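 Further: activated factor XIIa alpha cleaving a fluorogenic AMC peptide substrate; inhibitor potency from loss of enzyme activity.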
T5 sequence (P00748 whole entry): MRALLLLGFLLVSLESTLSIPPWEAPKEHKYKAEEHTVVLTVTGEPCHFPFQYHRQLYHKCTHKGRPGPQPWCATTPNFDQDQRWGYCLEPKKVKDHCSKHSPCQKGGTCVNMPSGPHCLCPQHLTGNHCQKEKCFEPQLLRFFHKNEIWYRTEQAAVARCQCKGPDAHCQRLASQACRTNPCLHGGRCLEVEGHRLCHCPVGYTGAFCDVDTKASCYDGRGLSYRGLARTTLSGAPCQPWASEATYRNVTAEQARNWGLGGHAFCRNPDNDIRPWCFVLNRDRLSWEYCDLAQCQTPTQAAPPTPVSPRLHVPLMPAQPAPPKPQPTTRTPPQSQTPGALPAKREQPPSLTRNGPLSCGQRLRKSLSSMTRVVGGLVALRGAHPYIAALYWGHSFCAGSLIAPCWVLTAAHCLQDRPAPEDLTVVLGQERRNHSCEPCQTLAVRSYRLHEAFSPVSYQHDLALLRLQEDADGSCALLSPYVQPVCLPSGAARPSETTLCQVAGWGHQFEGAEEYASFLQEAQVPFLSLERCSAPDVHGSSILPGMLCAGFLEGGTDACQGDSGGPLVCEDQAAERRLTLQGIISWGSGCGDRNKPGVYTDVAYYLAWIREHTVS
The class given is functional.

Assay [8] is described as follows: ZM109 Env clade C HIV-1 fusion inhibitors, dose response, HeLa effector, CEM target cells, luciferase, cherry-pick (AID 652058). The class given is functional, cell-based.
Assay [9] is described as follows: inhibitors of clade B AD8 Env fusion, dose response, cell-based, cherry-pick (AID 652062).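 Further: luciferase signal from cell-cell fusion driven by HIV-1 clade B AD8 Env; potency is for inhibitors of fusion seen as a drop in luminescence.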 Format: functional.
Assay [10] in a line: off-target signal loss in HeLa-CEM21 co-culture – HeLa F-luc CTL cells, cherry-picked, counter-screen for HIV-1 Env fusion inhibitor project, dose response (AID 652040).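 Further: potency for signal decrease marking cytotoxic or nonspecific inhibition.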 The class given is functional, cell-based.
The nature of assay [11]: inhibitors of HIV Env-driven cell fusion, dose response, cherry-pick (AID 652057). The class given is functional, cell-based.
Assay [12] deals with T6, Caspase-6 (Homo sapiens, UniProt P55212).
T6 sequence (P55212 whole entry): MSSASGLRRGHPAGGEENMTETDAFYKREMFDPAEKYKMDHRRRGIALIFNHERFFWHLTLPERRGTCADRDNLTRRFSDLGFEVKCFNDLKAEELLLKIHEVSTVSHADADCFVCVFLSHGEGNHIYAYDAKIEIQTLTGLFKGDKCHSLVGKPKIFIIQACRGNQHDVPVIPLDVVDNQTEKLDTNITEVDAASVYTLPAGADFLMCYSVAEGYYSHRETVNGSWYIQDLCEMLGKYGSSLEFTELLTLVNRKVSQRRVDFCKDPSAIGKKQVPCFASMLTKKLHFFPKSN
Kind of assay: human caspase-6 inhibitors, dose response, biochemical, VEID-R110 fluorescence, cherry-pick (AID 720632).

For assay [13], the target named is Paired box protein Pax-8 (Homo sapiens, UniProt Q06710). Kind of assay: inhibitors of PAX8-driven TPO luciferase reporter, dose response, RMG-I cells, cherry-pick (AID 687027).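 Further: luciferase reporter driven by Pax8 target thyroperoxidase promoter measured by SteadyGlo luminescence.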 The class given is functional, cell-based.
Chain of Paired box protein Pax-8 (Q06710 whole entry): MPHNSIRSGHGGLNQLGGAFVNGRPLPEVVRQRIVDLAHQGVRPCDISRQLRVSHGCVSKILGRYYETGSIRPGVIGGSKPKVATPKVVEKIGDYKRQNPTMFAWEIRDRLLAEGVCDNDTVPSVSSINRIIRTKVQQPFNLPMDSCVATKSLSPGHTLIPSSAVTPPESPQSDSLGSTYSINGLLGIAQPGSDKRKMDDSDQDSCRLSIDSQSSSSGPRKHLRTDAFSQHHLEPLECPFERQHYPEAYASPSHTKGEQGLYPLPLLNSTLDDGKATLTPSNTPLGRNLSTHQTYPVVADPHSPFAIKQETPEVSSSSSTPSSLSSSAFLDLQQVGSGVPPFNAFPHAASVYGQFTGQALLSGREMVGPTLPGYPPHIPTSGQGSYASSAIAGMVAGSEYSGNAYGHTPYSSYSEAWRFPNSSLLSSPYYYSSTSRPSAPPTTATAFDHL
Assay [14] is described as follows: NIH:OVCAR-3 ovarian cancer cell cytotoxicity, dose response, PAX8 inhibitor project, plate reader, dry powder samples (AID 743044). Format: functional, cell-based.
The nature of assay [15]: non-specific cell cytotoxicity, dose response, cytotoxicity control for PAX8 inhibitor project, plate reader, dry powder samples (AID 743021). Format: functional, cell-based.
Assay [16] in a line: cytotoxicity in OVCAR8 ovarian cancer cells, dose response, PAX8 project, cell-based, plate reader, dry powder samples (AID 743197). Format: functional. The note with it: OVCAR-8.
Assay [17] can be described thus: A cytotoxicity screen of small molecule inhibitors of the PhoP region in Salmonella typhi identified in the primary screen. [Related pubchem assays: 1850, 1864, 1985 ]. The class given is functional.
A short description of assay [18]: HEp-2 cell cytotoxicity, dose response, cytotoxicity control for RSV inhibitor project, HTS (AID 2410). The class given is functional. The note with it: human respiratory syncytial virus.
Assay [19] can be described thus: inhibitors of intracellular T. cruzi replication, confirmation, NIH3T3 host cells, beta-gal luminescence (AID 2044).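 Further: intracellular parasites grown in NIH/3T3 mouse fibroblasts as host cells; luminescent beta-galactosidase reporter signal from transgenic T. cruzi replicating inside host cells; inhibitors lower the luminescence signal.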 The class given is functional, cell-based.
Assay [20] can be described thus: cytotoxicity toward NIH3T3 fibroblasts, dose response, counter-screen, cell-based, ATP luminescence, mouse fibroblasts (AID 2010).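 Further: cells exposed to compound for about 90 hours before reading.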 The class given is functional.

Calls of active or inactive are those of the source.

Chain of Cytochrome P450 2D6 (P10635 whole entry): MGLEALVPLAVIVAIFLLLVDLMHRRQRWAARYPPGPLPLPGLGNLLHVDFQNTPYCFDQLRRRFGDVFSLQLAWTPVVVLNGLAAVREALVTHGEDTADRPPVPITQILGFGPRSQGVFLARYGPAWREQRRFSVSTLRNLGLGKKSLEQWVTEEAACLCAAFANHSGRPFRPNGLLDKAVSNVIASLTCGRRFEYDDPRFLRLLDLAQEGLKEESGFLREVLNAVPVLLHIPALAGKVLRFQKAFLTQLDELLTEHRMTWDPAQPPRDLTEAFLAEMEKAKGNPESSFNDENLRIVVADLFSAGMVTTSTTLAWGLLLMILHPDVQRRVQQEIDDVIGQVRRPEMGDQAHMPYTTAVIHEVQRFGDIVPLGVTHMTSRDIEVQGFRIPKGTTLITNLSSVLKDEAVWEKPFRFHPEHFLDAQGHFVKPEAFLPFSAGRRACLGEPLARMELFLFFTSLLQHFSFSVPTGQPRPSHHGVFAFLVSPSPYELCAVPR

As for `Cc1ccc(S(=O)(=O)N(CC(=O)NCCC2=CCCCC2)Cc2ccccc2F)cc1`, in assay [1], the CC50 is > 40 µM (active). For the same compound, the AC50 in assay [2] was 20 µM (inconclusive).

Take `O=C(COC(=O)c1cccc(NC(=O)c2ccco2)c1)c1ccc(Br)cc1`: the IC50 was 9.01 µM (active) in [3], 8.37 µM (active) in assay [4], 32.2 µM (active) in assay [5] and 6.05 µM (active) in [6].

For the compound `O=C(OCC(=O)N1CCCc2ccccc21)c1ccc(Cl)nc1`, the IC50 in [7] is > 50 µM (inactive).

As to `Cc1ccnc(Nc2nc(-c3ccccc3)cs2)c1`, the half-inhibitory concentration (IC50) was 7.16 µM (active) in assay [3], 3.93 µM (active) in assay [4], 13.1 µM (active) in assay [5] and 1.78 µM (active) in [6].

As to `CCc1ccc([C@H]2[C@@H]3C(=O)C[C@@H]4C(=O)N(C5CCCCC5)C(=O)[C@@H]4[C@@H]3CN2S(=O)(=O)c2ccc(C)cc2)cc1`, the AC50 in assay [8] is 1.99 µM (active); in [9], 2.15 µM (active); in assay [10], 2.53 µM (active); in assay [11], 1.09 µM (active).

As to `COC(=O)c1ccccc1NC(=O)Nc1cc(C)ccn1`, the IC50 in [7] is > 50 µM (inactive).

Regarding `Cc1ccc(NC(=O)/C(CN(C)C)=N\O)cc1`, in [7], the IC50 is > 50 µM (inactive).

Take `CSCCC(NS(=O)(=O)c1ccc2c(c1)oc(=O)n2C)C(=O)NC1CCCc2ccccc21` (configuration not stated): the AC50 in assay [8] was 3.16 µM (active); in assay [9] it was 8.37 µM (active); in assay [10] it was 7.6 µM (active); in [11] it was 4.21 µM (active).

`O=C1Cc2ccccc2C(=O)N1Nc1ccccc1`: the half-maximal activity concentration (AC50) in assay [12] was 51.5 µM (active).

For `CCC(=O)OCCn1c(=O)c2cc3c(=O)n(CCOC(=O)CC)c(=O)c3cc2c1=O`, the IC50 in assay [7] is > 50 µM (inactive).

As for `COc1ccc(-c2cc(-c3nnc(COC(=O)CC4CC5CCC4C5)o3)c3ccccc3n2)cc1OC` (configuration not stated), in assay [7], the IC50 is > 50 µM (inactive).

On to `O=C(C[C@@H]1C[C@@H]2c3cc(NS(=O)(=O)c4ccc(F)cc4)ccc3O[C@@H]2[C@@H](CO)O1)NCc1ccc(Oc2ccccc2)cc1`, for which the AC50 is 6.15 µM (active) in [13], 22.1 µM (active) in assay [14], 27.8 µM (active) in [15] and 17.9 µM (active) in assay [16].

In the case of `O=c1c(-c2cc(O)[nH]n2)c(O)c2ccccc2n1Cc1ccccc1`, in assay [12], the AC50 is 19.7 µM (active).

For the compound `Cc1c(C=O)c2ccccn2c1C(=O)c1ccccc1`, the EC50 in assay [17] is > 50 µM (active).

For `CCn1nnnc1SCC(=O)c1cc(Cl)ccc1OC`, the half-maximal effective concentration (EC50) in assay [17] is > 50 µM (active).

As for `O=C(O)c1c2c(nc3ccc(Cl)cc13)CCC2`, in [12], the half-maximal activity concentration (AC50) was 28.8 µM (active).

Turning to `O=C(Nc1ccc2[nH]c(-c3ccc(Br)o3)nc2c1)c1cccs1`, the half-maximal effective concentration (EC50) was > 50 µM (active) in [17], 3.18 µM (active) in assay [19] and > 60 µM (not active) in assay [20]. Also, the CC50 in [18] is 24 µM (active).

With `COCC1CCCN(Cc2c[nH]nc2-c2cc3ccccc3o2)C1` (configuration not stated), the EC50 in [17] is > 50 µM (active).

These data come from ChEMBL document CHEMBL1201862, “PubChem BioAssay data set” (2004).
